Reference: publication PMC4919791, “Effect of curcumin analogs onα-synuclein aggregation and cytotoxicity” (Scientific Reports, 2016)

Assays:
preformed α-Syn fibrils = biological target: T1, preformed α-Syn fibrils (Homo sapiens, UniProt P37840); assay: Calcein-AM/EthD-1 staining, preformed α-Syn fibrils with analogs; format: cell-based; conditions: SH-SY5Y cells
T1 construct: made in house; host or cells: Escherichia coli BL21
Experimental: Previously it has been shown that curcumin decreases the toxicity of α-Syn amyloid fibrils by reducing the exposed hydrophobic surfaces. To delineate whether curcumin analogs can decrease the toxicity of preformed α-Syn fibrils, we performed cell viability assay. For this, 10-days incubated α-Syn solution was centrifuged (fibril formation was confirmed by electron microscopy (EM)) and the pelleted fibrils were then re-dissolved in same volume of 20 mM MES buffer (pH 6.0, 0.01% NaN3). The concentration of the fibrils was determined by subtraction of supernatant concentration from the original concentration of α-Syn kept for fibrillation. […] After incubation, we measured the effect of curcumin analogs on the toxicity of preformed α-Syn amyloid fibrils by MTT reduction assay on SH-SY5Y cells. […]
(§1) For this assay, SH-SY5Y cells were seeded in 96 well plate and incubated with identical concentrations of oligomers/fibrils (as used in MTT assay) in absence and presence of curcumin and its analogs for 36 h in 5% CO2 incubator at 37 °C. […] Calcein-AM/Ethidium homodimer-1 signal was then checked and imaged with an inverted fluorescence microscope (Leica DMi8). […] The free calcein emits strong fluorescence signal at ~535 nm, which could be easily observed in the green channel of a microscope. […]

α-Syn oligomers [1] = biological target: T2, α-Syn oligomers (Homo sapiens, UniProt P37840); assay: LDH cytotoxicity assay of α-Syn oligomers with C1/C6; format: cell-based; conditions: oligomers incubated 30 minutes with compound; SH-SY5Y cells
T2 construct: made in house; host or cells: Escherichia coli BL21
Excerpt: It has been shown that α-Syn mutants that form oligomers preferentially are more toxic and kill dopaminergic neurons in animal models as compared to fibril forming mutants. Therefore, compounds that effectively reduce the toxicity of oligomers could be beneficial for the treatment of PD. In the present study, we tested the effect of curcumin and its analogs on the toxicity, hydrophobic exposure and morphology of α-Syn oligomers isolated using size exclusion chromatography (SEC). The toxicity of α-Syn oligomers in presence and absence of curcumin/analogs were initially tested using MTT assay. […] To further validate the effectiveness of C6 to reduce the cytotoxicity of α-Syn oligomers, we also performed LDH cytotoxicity assay and Calcein-AM/Ethidium homodimer-1 staining. […] As previously it has been proposed that curcumin reduces the oligomers toxicity by altering their exposed hydrophobic surface, we also measured the hydrophobic surface exposure of preformed α-Syn oligomers incubated with curcumin and its analogs.
10 μM of α-Syn oligomers/fibrils incubated with and without 5 μM curcumin/analogs were added to SH-SY5Y cells (10,000 cells/well) in 96 well plate. […] The percent LDH release was plotted as difference in the absorbance value of 490 nm and 690 nm, considering 100% release for the TritonX-100 treated cells.

α-Syn oligomers [2] = biological target: T2, α-Syn oligomers; assay: Calcein-AM/EthD-1 staining, α-Syn oligomers with C1/C6; format: cell-based; conditions: SH-SY5Y cells
Excerpt: It has been shown that α-Syn mutants that form oligomers preferentially are more toxic and kill dopaminergic neurons in animal models as compared to fibril forming mutants. Therefore, compounds that effectively reduce the toxicity of oligomers could be beneficial for the treatment of PD. In the present study, we tested the effect of curcumin and its analogs on the toxicity, hydrophobic exposure and morphology of α-Syn oligomers isolated using size exclusion chromatography (SEC). The toxicity of α-Syn oligomers in presence and absence of curcumin/analogs were initially tested using MTT assay. […] As previously it has been proposed that curcumin reduces the oligomers toxicity by altering their exposed hydrophobic surface, we also measured the hydrophobic surface exposure of preformed α-Syn oligomers incubated with curcumin and its analogs.
as §1

α-Syn fibrils = biological target: T3, α-Syn fibrils (Homo sapiens, UniProt P37840); assay: Binding affinity to α-Syn fibrils by curcumin analog fluorescence
T3 construct: made in house; host or cells: Escherichia coli BL21
Experimental: To estimate the comparative binding affinity of curcumin analogs to the α-Syn fibrils and oligomers, curcumin fluorescence assay was performed for each analog. For binding study with fibrils, 10 μM of α-Syn fibrils were incubated in presence of varying concentration of curcumin and its analogs (0.25 μM to 30 μM) for 30 min at RT in dark and then fluorescence spectra were recorded. The normalized fluorescence intensity of different concentrations of curcumin/analogs at their corresponding λmax was plotted to obtain their respective saturation plots (Figs 6A and S7). From the saturation plot, dissociation constant (Kd) was calculated (see method section).
The binding of curcumin/analogs to α-Syn fibrils were determined based on change in fluorescence intensity. For this study, 10 μM α-Syn fibrils were incubated in presence and absence of varying concentration of curcumin/analogs (0.25 μM to 30 μM) for 30 min at RT in dark. Immediately after incubation, fluorescence study was performed (for the excitation and emission ranges for each compounds, see Fig. S1). Experiments were performed using FluoroMax-4 spectrofluorometer (HORIBA JobinYvon) with excitation and emission slit widths of 5 nm. The maximum fluorescence intensity for curcumin/analogs was normalized with respect to that of the lowest concentration of each analog. The normalized fluorescence intensity was plotted against increasing concentration of curcumin/analogs and the dissociation constant was determined using the equation
where, “ΔF” is the change in the fluorescence intensity of curcumin/analogs, “ΔFmax” is the change in the fluorescence intensity at saturation point and “L”is the concentration of curcumin/analogs. The data were analyzed in Graphpad Prism software according to established method as used previously. Similarly, the dissociation constant of curcumin and its analogs with preformed α-Syn oligomers and monomers (obtained from SEC) were also determined.

α-Syn oligomers [3] = biological target: T2, α-Syn oligomers; assay: Binding affinity to α-Syn oligomers by curcumin analog fluorescence; conditions: compound fluorescence; read-out: dissociation constant (Kd) for α-Syn oligomers
Experimental: Immediately after incubation, fluorescence study was performed (for the excitation and emission ranges for each compounds, see Fig. S1). Experiments were performed using FluoroMax-4 spectrofluorometer (HORIBA JobinYvon) with excitation and emission slit widths of 5 nm.
The data were analyzed in Graphpad Prism software according to established method as used previously.

α-Syn = biological target: T4, α-Syn (Homo sapiens, UniProt P37840); assay: TEM of α-Syn aggregates formed in presence of analogs; format: biochemical
T4 construct: made in house; host or cells: Escherichia coli BL21
Experimental: Subsequently, we examined the effect of these analogs on α-Syn oligomerization by time dependent static light scattering experiment. […] After aggregation, TEM study was done to determine the effects of these analogs on the morphology of the resultant aggregates.
The samples were then washed thrice with autoclaved MQ. The samples were then stained with 10 μl of uranyl formate 1% (w/v) and incubated in dark for 10 min. The EM image of each sample was acquired at 120 kV with magnifications in the range of 26,000X and 43,000X using a transmission electron microscope (TECNAI12 D312 FEI, Netherlands).

SMILES: COc1cc(/C=C/C(=O)CC(=O)/C=C/c2ccc(OCc3ccccc3)c(OC)c2)ccc1OCc1ccccc1 [C6]
- Calcein-AM/EthD-1 staining with preformed α-Syn fibrils (preformed α-Syn fibrils): less nuclear staining by EthD-1
- LDH release with α-Syn oligomers (α-Syn oligomers [1]): reduced LDH release
- ethidium homodimer staining with α-Syn oligomers (α-Syn oligomers [2]): less ethidium homodimer staining
- Kd (α-Syn fibrils; 10 μM fibrils, 0.25–30 μM analog, 30 min RT, read-out: dissociation constant (Kd) for α-Syn fibrils): 0.482 ± 0.07 µM
- binding with preformed α-Syn fibrils (α-Syn fibrils; compound fluorescence): highest binding
- Kd (α-Syn oligomers [3]): 16.1 ± 3.81 µM
- average fibril thickness of fibrils formed in presence of analog (α-Syn): more in comparison to fibrils formed in presence of other analogs
